Consider 1 compound from article PMC4000049, “Genome segment 5 of Antheraea mylitta cytoplasmic polyhedrosis virus encodes a bona fide guanylyltransferase” (Virology Journal, 2014).

This assay deals with T1, p65 (AmCPV S5-encoded guanylyltransferase).
T1 construct: entire S5 ORF (nt 266 to 2086; 606 residues, ~65 kDa), His-tagged in pQE-30, E. coli M15, Ni-NTA
As to the kind of experiment: pyrophosphatase-coupled malachite green assay of capping, replot of double-reciprocal plots. It counts as biochemical, Antheraea mylitta cypovirus 4. To be noted: co-substrate 5'-diphosphate-ended viral RNA (50 to 150 nM), 5 mM MgCl2, 5 mM DTT, 50 mM Tris-HCl pH 7.5, 25°C; ping-pong; covalent GMP intermediate.

As to `Nc1nc2c(ncn2[C@@H]2O[C@H](COP(=O)(O)OP(=O)(O)OP(=O)(O)O)[C@@H](O)[C@H]2O)c(=O)[nH]1` [GTP], the Km was determined as 34.2 µM.

What is called Km is the concentration of substrate that gives half-maximal velocity.
